According to PMC4494852, “Microwave-assisted preparation, structural characterization, lipophilicity, and anti-cancer assay of some hydroxycoumarin derivatives” (Monatshefte Fur Chemie, 2014):

Legend:
[1] = test system: Walker 256 carcinosarcoma; design: method as in doi:10.1021/jo00316a018; conditions: cited from earlier work
P-388 lymphotic leukemia = test system: P-388 lymphotic leukemia; design: method as in doi:10.1021/jo00316a018; conditions: cited from earlier work
Lewis lung carcinoma = test system: Lewis lung carcinoma; design: method as in doi:10.1021/jo00316a018; conditions: cited from earlier work
sarcoma 180 = test system: sarcoma 180; design: method as in doi:10.1021/jo00316a018; conditions: cited from earlier work
prostate cancer PC-3 = test system: prostate cancer PC-3; design: method as in PMID 21439691; conditions: cited from earlier work
leukemia HL-60 (TB) = test system: leukemia HL-60 (TB); design: method as in PMID 21439691; conditions: cited from earlier work
leukemia RPMI-8226 = test system: leukemia RPMI-8226; design: method as in PMID 21439691; conditions: cited from earlier work
[2] = test system: non-small-cell lung cancer NCI-H522; design: method as in PMID 21439691; conditions: cited from earlier work
leukemia K-562 = test system: leukemia K-562; design: method as in PMID 21439691; conditions: cited from earlier work
[3] = Lipophilicity by reversed-phase TLC on RP-18 WF254s plates with standardization; conditions: for φ 0 (intercept of the trend line with abscissa axis): molar fraction for which lipophilicity equals 0
[4] = test system: mouse melanoma cells B16F10; test: Cytotoxicity assay (PrestoBlue, resazurin); format: cell-based; conditions: B16-F10 (melanoma), 10 and 100 μM, 48 h
Procedure: (§1) Synthesized substances were dissolved in DMSO (Sigma-Aldrich) to obtain 20 mM stock solutions and kept in 4 °C prior to use.
(§2) The human prostate cancer cells DU145 and mouse melanoma cells B16F10 were maintained in humidified incubator containing 5 % CO2 at 37 °C. DU145 cells were cultured in RPMI medium and B16F10 were cultured in DMEM medium. The media were supplemented with 10 % of fetal calf serum (FCS) and 1 % of antibiotic antimycotic (Sigma). Cells were passaged every 2–3 days. All cell lines were obtained from ATCC (The Global Bioresource Center).
(§3) PrestoBlue (test based on resazurin) was used for analysis cytotoxicity/cytostatic effects. DU145 and B16F10 cells were seeded on 96-well plate (10 × 10^3 cells per well). Examined substances were added to culture after overnight cell incubation. Two concentrations of substances (10 and 100 μM) were used. Control cells and control cells with solvent (DMSO) were applied. After 48 h PrestoBlue test was performed.

[5] = test system: human prostate cancer cells DU145; test: Cytotoxicity assay (PrestoBlue, resazurin); format: cell-based; conditions: 10 and 100 μM, 48 h
Procedure: as §1, §2, §3

SMILES | S (slope of the trend line RM vs φ) ([3]; acetonitrile/water) | φ 0 (intercept of the trend line with abscissa axis) ([3]; acetonitrile/water) | S (slope of the trend line RM vs φ) ([3]; dioxane/water) | φ 0 (intercept of the trend line with abscissa axis) ([3]; dioxane/water) | S (slope of the trend line RM vs φ) ([3]; isopropanol/water) | φ 0 (intercept of the trend line with abscissa axis) ([3]; isopropanol/water) | S (slope of the trend line RM vs φ) ([3]; methanol/water) | φ 0 (intercept of the trend line with abscissa axis) ([3]; methanol/water) | melting point [°C] | inhibitory activity [1] | inhibitory activity (P-388 lymphotic leukemia) | inhibitory activity (Lewis lung carcinoma) | inhibitory activity (sarcoma 180) | growth inhibition (prostate cancer PC-3) | growth inhibition (leukemia HL-60 (TB)) | growth inhibition (leukemia RPMI-8226) | growth inhibition [2] | growth inhibition (leukemia K-562) | cytotoxicity in primary screen [4] | cytotoxicity in primary screen [5]
C/C(=C\COc1ccc2ccc(=O)oc2c1)C1=CC(=O)C(C)(C)O1 [Geiparvarin] | – | – | – | – | – | – | – | – | – | significant inhibitory activity | significant inhibitory activity | significant inhibitory activity | significant inhibitory activity | – | – | – | – | – | – | –
CC(=O)c1c(OCC#N)ccc2c(C)cc(=O)oc12 [8-Acetyl-7-(cyanomethoxy)-4-methylcoumarin] | – | – | – | – | – | – | – | – | – | – | – | – | – | inhibited the growth | inhibited the growth | inhibited the growth | inhibited the growth | inhibited the growth | – | –

The next lines start with results.

S (slope of the trend line RM vs φ) ([3]; acetonitrile/water) | φ 0 (intercept of the trend line with abscissa axis) ([3]; acetonitrile/water) | S (slope of the trend line RM vs φ) ([3]; dioxane/water) | φ 0 (intercept of the trend line with abscissa axis) ([3]; dioxane/water) | S (slope of the trend line RM vs φ) ([3]; isopropanol/water) | φ 0 (intercept of the trend line with abscissa axis) ([3]; isopropanol/water) | S (slope of the trend line RM vs φ) ([3]; methanol/water) | φ 0 (intercept of the trend line with abscissa axis) ([3]; methanol/water) | melting point [°C] | SMILES | inhibitory activity [1] | inhibitory activity (P-388 lymphotic leukemia) | inhibitory activity (Lewis lung carcinoma) | inhibitory activity (sarcoma 180) | growth inhibition (prostate cancer PC-3) | growth inhibition (leukemia HL-60 (TB)) | growth inhibition (leukemia RPMI-8226) | growth inhibition [2] | growth inhibition (leukemia K-562) | cytotoxicity in primary screen [4] | cytotoxicity in primary screen [5]
3.2466 | 0.437 | 3.3439 | 0.483 | 2.8574 | 0.445 | 2.746 | 0.675 | – | Cc1cc(O)c2c(C)cc(=O)oc2c1 [Compound 2, 5-hydroxy-4,7-dimethylcoumarin] | – | – | – | – | – | – | – | – | – | slightly active | slightly active
3.706 | 0.519 | 4.1018 | 0.55 | 3.15 | 0.479 | 3.2113 | 0.754 | – | CC(=O)c1c(C)cc2oc(=O)cc(C)c2c1O [Compound 3, 6-acetyl-5-hydroxy-4,7-dimethylcoumarin] | – | – | – | – | – | – | – | – | – | slightly active | slightly active
3.3589 | 0.499 | 3.2254 | 0.498 | 2.3947 | 0.434 | 2.677 | 0.669 | 214 to 216 | Cc1cc(OCC#N)c2c(C)cc(=O)oc2c1 [Compound 5, 5-(cyanomethoxy)-4,7-dimethylchromen-2-one] | – | – | – | – | – | – | – | – | – | – | –
